Data as given in patent publication US8012975B2, “Antitumoral analogs of ET-743” (Pharma Mar, S.A., priority 2000, dated 2011).
Where two headings read alike, the source gives them in different places.

Tests used:
[1] = test system: P-388; test: Cytotoxic activity IC50, P-388
[2] = test system: A-549; test: Cytotoxic activity IC50, A-549
[3] = test system: HT-29; test: Cytotoxic activity IC50, HT-29
[4] = test system: MEL-28; test: Cytotoxic activity IC50, MEL-28
[5] = test system: DU-145; test: Cytotoxic activity IC50, DU-145
[6] = Mus musculus, P388, read-out: CYTOTOXIC ACTIVITIY IC50 (μM) P-388
[7] = Homo sapiens, A549, read-out: CYTOTOXIC ACTIVITIY IC50 (μM) A-549, A-549
[8] = Homo sapiens, HT-29, read-out: CYTOTOXIC ACTIVITIY IC50 (μM) HT-29, HT-29
[9] = Homo sapiens, SK-MEL-28, read-out: CYTOTOXIC ACTIVITIY IC50 (μM) MEL-28, MEL-28
[10] = Homo sapiens, DU-145, read-out: CYTOTOXIC ACTIVITIY IC50 (μM) DU-145, DU-145

Structure (SMILES) | IC50 [1, 6] | IC50 [2, 7] | IC50 [3, 8] | IC50 [4, 9] | IC50 [5, 10] | IC50 ([1]; read-out: CYTOTOXIC ACTIVITIY IC50 (μM) P-388, P-388) | IC50 ([2]; read-out: CYTOTOXIC ACTIVITIY IC50 (μM) A-549, A-549) | IC50 ([3]; read-out: CYTOTOXIC ACTIVITIY IC50 (μM) HT-29, HT-29) | IC50 ([4]; read-out: CYTOTOXIC ACTIVITIY IC50 (μM) MEL-28, MEL-28) | IC50 ([5]; read-out: CYTOTOXIC ACTIVITIY IC50 (μM) DU-145, DU-145)
COc1c(C)cc2c(c1O)[C@@H]1C3Cc4c(OC(=O)CCl)c(C)c5c(c4[C@H](CNC(=O)CCc4ccccc4)N3[C@@H](C#N)[C@H](C2)N1C)OCO5 (stereo partly drawn) | 0.001 µM | 0.001 µM | 0.001 µM | 0.001 µM | 0.001 µM | – | – | – | – | –
COCOc1c(OC)c(C)cc2c1[C@@H]1C3Cc4c(OC(C)=O)c(C)c5c(c4[C@H](COC(=O)/C=C/c4cccc(C(F)(F)F)c4)N3[C@@H](C#N)[C@H](C2)N1C)OCO5 (stereo partly drawn) | 0.6 µM | 0.6 µM | 0.6 µM | 0.6 µM | 0.6 µM | – | – | – | – | –
COc1c(C)cc2c(c1O)[C@@H]1C3Cc4c(OC(=O)C(F)(F)F)c(C)c5c(c4[C@H](CNC(=O)CCc4ccccc4)N3[C@@H](C#N)[C@H](C2)N1C)OCO5 (stereo partly drawn) | 0.01 µM | 0.01 µM | 0.01 µM | 0.01 µM | 0.01 µM | – | – | – | – | –
C=CCOC(=O)Oc1c(C)c2c(c3c1CC1[C@H]4c5c(cc(C)c(OC)c5O)C[C@@H]([C@H](C#N)N1[C@H]3CNC(=O)[C@H](C)N)N4C)OCO2 (stereo partly drawn) | 0.001 µM | 0.001 µM | 0.001 µM | 0.001 µM | 0.001 µM | – | – | – | – | –
COc1c(C)cc2c(c1O)[C@@H]1C3Cc4c(OC(C)=O)c(C)c5c(c4[C@H](COC(=O)/C=C/c4cccc(C(F)(F)F)c4)N3[C@@H](C#N)[C@H](C2)N1C)OCO5 (stereo partly drawn) | 0.001 µM | 0.001 µM | 0.001 µM | 0.001 µM | 0.001 µM | – | – | – | – | –
C=CCOC(=O)Oc1c(C)c2c(c3c1CC1[C@H]4c5c(cc(C)c(OC)c5O)C[C@@H]([C@H](C#N)N1[C@H]3CN)N4C)OCO2 (stereo partly drawn) | 0.06 µM | 0.06 µM | 0.06 µM | 0.06 µM | 0.06 µM | – | – | – | – | –
COc1c(C)cc2c(c1O)[C@@H]1C3Cc4c(OC(=O)CCCl)c(C)c5c(c4[C@H](CNC(=O)CCc4ccccc4)N3[C@@H](C#N)[C@H](C2)N1C)OCO5 (stereo partly drawn) | 0.01 µM | 0.01 µM | 0.01 µM | 0.01 µM | 0.01 µM | – | – | – | – | –
COc1c(C)cc2c(c1O)[C@@H]1C3Cc4c(OC(C)=O)c(C)c5c(c4[C@H](CNC(=O)[C@H](C)NC(=O)[C@@H](NC(=O)OCc4ccccc4)C(C)C)N3[C@@H](C#N)[C@H](C2)N1C)OCO5 (stereo partly drawn) | 0.01 µM | 0.01 µM | 0.01 µM | 0.01 µM | 0.01 µM | – | – | – | – | –
COc1c(C)cc2c(c1O)[C@@H]1C3Cc4c(OC(C)=O)c(C)c5c(c4[C@H](CNC(=O)/C=C/c4cccc(C(F)(F)F)c4)N3[C@@H](O)[C@H](C2)N1C)OCO5 (stereo partly drawn) [drawing 109] | – | – | – | – | – | 0.0001 µM | 0.0001 µM | 0.0001 µM | 0.0001 µM | 0.0001 µM
C/C=C/C(=O)N[C@@H](C)C(=O)NC[C@H]1c2c(c(OC(C)=O)c(C)c3c2OCO3)CC2[C@H]3c4c(cc(C)c(OC)c4O)C[C@@H]([C@H](C#N)N21)N3C (stereo partly drawn) | 0.001 µM | 0.007 µM | 0.001 µM | 0.001 µM | 0.007 µM | – | – | – | – | –
C=CCOc1c(C)c2c(c3c1CC1[C@H]4c5c(cc(C)c(OC)c5OCOC)C[C@@H]([C@H](C#N)N1[C@H]3COC(=O)/C=C/c1ccccc1)N4C)OCO2 (stereo partly drawn) | 0.1 µM | 0.1 µM | 0.1 µM | 0.1 µM | 0.1 µM | – | – | – | – | –
C=CCOc1c(C)c2c(c3c1CC1[C@H]4c5c(cc(C)c(OC)c5OCOC)C[C@@H]([C@H](C#N)N1[C@H]3COC(=O)/C=C/c1cccc(C(F)(F)F)c1)N4C)OCO2 (stereo partly drawn) | > 1 µM | > 1 µM | > 1 µM | > 1 µM | > 1 µM | – | – | – | – | –
C/C=C/C(=O)N[C@@H](C)C(=O)NC[C@H]1c2c(c(OC(C)=O)c(C)c3c2OCO3)CC2[C@H]3c4c(cc(C)c(OC)c4O)C[C@@H]([C@H](O)N21)N3C (stereo partly drawn) | 0.001 µM | 0.007 µM | 0.001 µM | 0.001 µM | 0.007 µM | – | – | – | – | –
COCOc1c(OC)c(C)cc2c1[C@@H]1C3Cc4c(O)c(C)c5c(c4[C@H](COC(=O)/C=C/c4ccccc4)N3[C@@H](C#N)[C@H](C2)N1C)OCO5 (stereo partly drawn) | 0.1 µM | 0.1 µM | 0.1 µM | 0.1 µM | 0.1 µM | – | – | – | – | –
CCCC(=O)N[C@@H](C)C(=O)NC[C@H]1c2c(c(OC(C)=O)c(C)c3c2OCO3)CC2[C@H]3c4c(cc(C)c(OC)c4O)C[C@@H]([C@H](O)N21)N3C (stereo partly drawn) | 0.001 µM | 0.001 µM | 0.001 µM | 0.001 µM | 0.001 µM | – | – | – | – | –
